From patent US9631002B2, “Methods and compositions for producing active vitamin K-dependent proteins” (The University of North Carolina at Chapel Hill, priority 2010, dated 2017)
Like-named read-outs stand apart in the source and are kept apart here.

Columns and labels:
[1] = tested on: FIXgla-PC carboxylation in HEK 293 cells; format: cell-based, human; conditions: for inhibition of FIXgla-PC carboxylation by 2 μM warfarin: 5 μM KO as substrate
[2] = tested on: FIXgla-PC carboxylation in AV12 cells
[3] = Activity of warfarin-resistant Y139F human VKOR relative to wild-type human VKOR
[4] = literature refs 18, 25; cited from earlier work
[5] = tested on: carboxylation of FIXgla-PC reporter protein in HEK293 cells (reduction of KO to vitamin K); experiment: Cell-based VKOR activity assay: recombinant VKOR/VKORH expressed in FIXgla-PC/HEK293 cells with KO and warfarin, carboxylated reporter by ELISA; design: species or system human; conditions: for carboxylation of reporter protein by human VKOR cysteine mutants: Y139F background, 4 μM warfarin, HEK293 (FIG. 13); for activity in the in vivo assay: cysteine mutants of VKOR-Y139F
[6] = tested on: carboxylation of FIXgla-PC reporter protein in AV12 cells (reduction of vitamin K to KH2); experiment: Cell-based VKOR activity assay in FIXgla-PC/AV12 or FIXgla-PC/VKOR-Y139F/AV12 cells, carboxylated reporter by ELISA; design: species or system Syrian golden hamster
[7] = previous in vitro results; cited from earlier work

For `CC1=C(C/C=C(\C)CCC[C@H](C)CCC[C@H](C)CCCC(C)C)C(=O)c2ccccc2C1=O` [vitamin K, Vitamin K1], the “increase in secretion of carboxylated reporter protein compared to no additions” value ([1]; 11 μM vitamin K or 5 μM KO, HEK293) was “approximately 25 fold”, the “vitamin K concentration at which carboxylation occurred maximally” value ([1]; absence of warfarin, HEK293, 48 h) was 1 µM and the “vitamin K concentration at which maximal carboxylation was detected” value ([1]; presence of 2 μM warfarin, HEK293, 48 h) was 22 µM. The “vitamin K concentration at which maximum carboxylation of FIXgla-PC occurs” value ([2]; AV12 cells) was 2.5 µM.

For `CC(=O)CC(c1ccccc1)c1c(O)c2ccccc2oc1=O` (stereo not shown) [warfarin], the “carboxylated reporter protein detected in the medium in the presence of warfarin” value ([1]; 1 μM vitamin K, 2 μM warfarin, HEK293) was “less than 20%”, the “carboxylation of reporter protein by endogenous VKOR at 4 μM warfarin” value ([1]; 4 μM warfarin, HEK293) was “completely abolished” and the “inhibition of FIXgla-PC carboxylation by 2 μM warfarin” value ([1]; 2 μM warfarin, HEK293) was “completely inhibited”. The “inhibition of FIXgla-PC carboxylation by 2 μM warfarin” value ([1]; 2 μM warfarin, HEK293, listed as Warfarin) was “eliminated KO-supported carboxylation”, the “levels of carboxylated protein in the presence of warfarin, cells fed vitamin K” value ([1]; 11 μM vitamin K as substrate, HEK293) was “unaffected” and the IC50 ([1]; Homo sapiens, KO (5 μM) as substrate, 48 h, HEK293, read-out: warfarin concentration giving 50% inhibition of FIXgla-PC carboxylation) was 100 nM. For the same molecule, the “effect of warfarin on reporter protein carboxylation” value ([2]; AV12 stably over expressing VKOR-Y139F, 5 μM KO, 2 μM warfarin) was “abolished reporter protein carboxylation”, the “inhibition of production of carboxylated reporter protein by warfarin” value ([2]; vitamin K as substrate, AV12) was “significantly inhibited” and the residual activity ([2]; vitamin K as substrate, warfarin, AV12 (FIG. 4A)) was roughly 20%.

With `O=c1oc2ccccc2c(O)c1Cc1c(O)c2ccccc2oc1=O` [dicoumarol] the reporter protein carboxylated ([1]; 20 μM dicoumarol, HEK293, vitamin K) was 60%, the “inhibition of reporter protein carboxylation by dicoumarol” value (shortened to “inhibition … by dicoumarol”) ([1]; KO as vitamin K source, HEK293) was “significantly inhibited” and the “inhibition … by dicoumarol” value ([1]; cells fed vitamin K, HEK293) was “only minimal inhibition”. For the same molecule, the “decrease of carboxylation of the reporter protein” value ([1]; vitamin K as substrate, dicoumarol) was roughly 20% and the “inhibition … by dicoumarol” value ([2]; vitamin K present, AV12) was “completely inhibited”.

B1: VKOR-Y139F: human VKOR rendered warfarin resistant by Y139F mutation; control (protein, UniProt Q9BQB6 1-163, looked up, variant Y139F)
Vitamin K epoxide reductase …: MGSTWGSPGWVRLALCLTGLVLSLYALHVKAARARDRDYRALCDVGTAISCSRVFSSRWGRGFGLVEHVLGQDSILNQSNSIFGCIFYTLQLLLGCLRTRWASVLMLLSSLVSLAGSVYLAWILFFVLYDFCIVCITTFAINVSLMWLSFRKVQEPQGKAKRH
For B1, the “reduction in the activity of human VKOR caused by the Y139F mutation” value [3] is given as “approximately 50%”, the “fraction of wild-type VKOR activity observed” value ([3]; Y139F human VKOR) is given as “About 50%” and the “fraction of wild-type activity” value [4] is given as roughly 40%. The “carboxylation of reporter protein by human VKOR cysteine mutants” value [5] was “restored”, the “increase of carboxylated reporter protein compared to the control” value ([5]; transient expression, 5 μM KO, 2 μM warfarin, HEK293, control empty vector) was roughly 20 fold and the “increase of reporter protein carboxylation by over-expression” value ([6]; stable expression in AV12, 5 μM KO, no warfarin (FIG. 7B)) was “approximately two-fold”. For the same molecule, the “carboxylated reporter protein secreted” value ([6]; transient expression in FIXgla-PC/AV12, 5 μM KO, 2 μM warfarin (FIG. 7A)) was “no carboxylated reporter protein was secreted” and the “support of reporter protein carboxylation” value ([6]; transient expression in FIXgla-PC/AV12 not stably expressing VKOR-Y139F, KO and warfarin (FIG. 19B)) was “did not support carboxylation of the reporter protein”.

B2: C43A: warfarin resistant human VKOR (Y139F) with C43 mutated to alanine (protein, UniProt Q9BQB6 1-163, looked up, variant C43A)
Vitamin K epoxide reductase …: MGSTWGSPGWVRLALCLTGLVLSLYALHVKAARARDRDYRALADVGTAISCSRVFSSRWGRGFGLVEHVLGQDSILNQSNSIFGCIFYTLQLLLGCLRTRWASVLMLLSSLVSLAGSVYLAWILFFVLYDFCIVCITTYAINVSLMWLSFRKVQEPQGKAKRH
In the case of B2, the “activity in the in vitro assay” value [7] is given as roughly 30%, the “carboxylation of reporter protein by human VKOR cysteine mutants” value [5] is given as “dramatically decreased activity” and the “activity in the in vivo assay” value ([5]; 5 μM KO, 4 μM warfarin (FIGS. 17A-B)) is given as roughly 5%.

B3: C16A: warfarin resistant human VKOR (Y139F) with C16 mutated to alanine (protein, UniProt Q9BQB6 1-163, looked up, variant C16A)
Vitamin K epoxide reductase …: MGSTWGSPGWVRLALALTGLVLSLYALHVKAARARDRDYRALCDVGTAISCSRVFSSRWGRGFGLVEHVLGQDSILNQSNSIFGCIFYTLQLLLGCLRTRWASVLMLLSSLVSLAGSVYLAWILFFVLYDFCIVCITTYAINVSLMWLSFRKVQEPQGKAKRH
For B3, the “activity in the in vitro assay” value [7] is listed as roughly 40% and the “activity in the in vivo assay” value ([5]; 5 μM KO, 4 μM warfarin (FIG. 17A)) is listed as “no effect on activity”.
